Measurements as given in patent publication US20250221967A1, “COMPOSITIONS AND METHODS FOR THE TREATMENT OF CANCER AND OTHER PROLIFERATIVE DISEASES” (THE WISTAR INSTITUTE OF ANATOMY AND BIOLOGY, priority 2022, published 2025).
“Also recorded” adds a separate entry of the source.

What was measured:
Rb-NT (380-785) = target: T1, Rb-NT (380-785) (Homo sapiens, UniProt P06400); test: Inhibition of AP-8-239 binding to Rb-NT (380-785); conditions: for Inhibition of AP-8-239 binding Rb-NT (380-785) Top: top of inhibition curve
T1 construct: Rb-NT (380-785)
T1 sequence (P06400 380-785): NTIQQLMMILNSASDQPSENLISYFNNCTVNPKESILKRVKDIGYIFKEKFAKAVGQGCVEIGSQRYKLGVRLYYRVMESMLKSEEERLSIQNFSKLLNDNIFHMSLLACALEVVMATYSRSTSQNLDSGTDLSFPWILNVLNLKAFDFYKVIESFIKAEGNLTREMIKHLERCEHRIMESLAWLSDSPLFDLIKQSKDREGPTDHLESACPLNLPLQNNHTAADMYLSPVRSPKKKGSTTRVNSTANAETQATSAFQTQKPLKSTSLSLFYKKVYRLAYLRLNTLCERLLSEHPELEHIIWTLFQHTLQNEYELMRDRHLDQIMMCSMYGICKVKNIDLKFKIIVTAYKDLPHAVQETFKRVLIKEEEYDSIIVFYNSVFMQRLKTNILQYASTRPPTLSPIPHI

[1] = target: T2, HDAC1 binding Rb-NT (380-785) (Homo sapiens, UniProt P06400); test: Inhibition of HDAC1 binding to Rb-NT (380-785); conditions: for Inhibition of HDAC1 binding Rb-NT (380-785) Top: top of inhibition curve
T2 construct: Rb-NT (380-785)
T2 sequence (P06400 380-785): T1 sequence (P06400 380-785)
Experimental: Additionally, the binding of different proteins was evaluated. The binding of E7, E2F1, MDM2, and HDAC1 were evaluated to Rb fragments. The compounds tested herein where shown inhibit HDAC1 binding to the Rb fragments in the LxCxE binding pocket.

Rb protein = target: T3, Rb protein (Homo sapiens, UniProt P06400); test: Iodoacetamide capping of Cys residues of compound-treated Rb protein, MALDI-MS; conditions: for # of CH2CONH2: RB + compound + Iodoacetamide, RB + DMSO control gives 8; for Cys residues masked from reacting with the iodoacetamide: Rb protein treated with compound, then iodoacetamide
T3 sequence (P06400 380-785 limits assumed): T1 sequence (P06400 380-785)
Experimental: Further studies were conducted to evaluate the binding of the compounds to the Rb protein. Using MS, the […] that had been treated with excess amounts of the compounds were then capped with iodoacetamide. […] Furthermore, there was a significant reduction in MS/MS sequencing events. […] One explanation is that the compound activates Cys706 for nucleophilic attack from Cys712.
In order to confirm that, the Rb protein was treated with iodoacetamide to cap the Cys residues. The predicted chart is shown below.

THP-1 cell line = test: Western blots of ER stress and apoptosis proteins; assay type: cell-based; conditions: Western blot, listed as AP-3-84
Experimental: (§1) Additionally, the inventors obtained test results showing the compounds to be effective in models of AML. AML cell lines (THP-1, AML-193, Kasumi-1) were cultured at different cell concentration (75000/ml, 125,000/ml and 200,000/ml) and exposed to 5, 10, 15, 20 μM concentration of AP-3-84. Cell differentiation was induced by 100 ng/ml PMA over 24 hours. Nonhemopoietic cancer cells (ID8, PDAC) were analyzed after exposure to AP-3-84. Cell death outcomes were measured by Annexin-V using flowcytometry or viability measures by Alamar blue assay. Protein levels were measured by Western blots at intervals between 30 min and 6 hours after exposure to AP-3-84 for total Rb1, phosphorylated Rb1, ATF3, BIM, NOXA, BaK, Bax, cleaved PARP, cleaved Caspase-3. Cytoplasmic and mitochondrial lysates were examined. Confocal immunocytochemistry on Rb1 expression in nucleus versus cytoplasm was performed.

PDA T high cell line [2] = test: Orthotopic PDA T high pancreatic tumor model in B6 wild-type mice; assay type: in vivo; conditions: 7 daily treatments from day 4, tumors collected day 22, listed as AP-3-84
Experimental: (§2) (FIGS. 2A-B) B6 wild-type mice were orthotopically injected with PDA T high cell line into the pancreas. T high PDA cell line was previously generated by Dr. Stanger's lab (Upenn), this tumor cell line can induce some T cell infiltration opposite to T low PDA cell line (shown in FIGS. 4A-C). Mice were treated with 7 daily AP-3-84 or vehicle starting from day 4. On day 22 pancreatic tumors were collected and compared across two groups. […] (FIG. 2C) B6 wild-type mice were injected subcutaneously with PDA T high tumor cells and treated with AP-3-84 or vehicle as in FIGS. 2A-B. Tumor growth was measured until day 31. […] (FIG. 2D) Same experiment as in FIGS. 2A-B was conducted in NSG immunodeficient mice.
Statistical analysis of the data was conducted using unpaired Student t-test criteria with additional false discovery rate adjustment for multiple comparisons for gene expression analysis.

[3] = tested on: tumor-associated macrophages; test: Flow cytometry of immune cells in orthotopic PDA T high model; assay type: in vivo, mice
Experimental: FIGS. 3A-B. AP-3-84 depletes tumor macrophages and re-shapes immune cell landscape. (FIGS. 3A-B) B6 wild-type mice were orthotopically injected with PDA T high cell line into the pancreas and treated with AP-3-84 or vehicle as in FIGS. 2A-D. Tumor cells on day 12 (FIG. 3A) or peritoneum cells on day 21 (FIG. 3B) were analyzed by flow cytometry. […] Significant effects on activation and differentiation of immune cells in tumor and periphery were also found (not shown).

[4] = tested on: AML cell lines (THP-1, AML-193, Kasumi-1); test: Cell death in AML cell lines (Annexin-V flow cytometry, Alamar blue); assay type: cell-based
Experimental: as §1

[5] = tested on: Nonhemopoietic cancer cells (ID8, PDAC); test: Cell death in nonhemopoietic cancer cells; assay type: cell-based; conditions: listed as AP-3-84
Experimental: as §1

PDA T high cell line [6] = test: Orthotopic PDA T high tumor model in NSG immunodeficient mice; assay type: in vivo
Experimental: as §2

[7] = tested on: Thioglycollate-induced macrophages; test: Gene expression changes by RNA-Seq; assay type: cell-based; conditions: 10 uM, 4 hours, listed as AP-3-84
Experimental: (§3) FIGS. 1A-B. Novel Rb1 modulator AP-3-84 induces cell death specifically in macrophages. (FIG. 1A) Tumor PDAC cells and thioglycolate-induced macrophages were cultured with different concentrations of AP-3-84 Rb1 modulator for 16 hours with the following assessment of viability by Annexin V/DAPI staining. […] (FIG. 1B) Thioglycollate-induced macrophages were cultured with 10 uM AP-3-84 for 4 hours and gene expression changes were studied by RNA-Seq.

[8] = tested on: nonhemopoitic cancer cells; test: Cell proliferation by CFSE dye dilution; assay type: cell-based; conditions: nonhemopoietic cancer cells
Description: FIG. 22A-22C. […] A. Graphs indicates the total percentage of cell death (annexin V+ and AnnexinV+Live-Dead+ cells) in PMA treated THP-1 cells. […] C. Histogram indicates cell proliferation, measured by CSFE dye dilution in presence of AP-3-84 and other inhibitors. Bar diagram indicates average MFI of CFSE dye in presence of different inhibitors.

[9] = tested on: PMA differentiated THP1 cells; test: Cell death in PMA differentiated THP-1 cells; assay type: cell-based; conditions: PMA treated THP-1 cells; listed as AP-3-84
Experimental: as §1

PDA T low cell line = test: PDA T low tumor model (orthotopic or subcutaneous) in B6 wild-type mice; assay type: in vivo
Experimental: FIGS. 4A-C. AP-3-84 renders more resistant PDA tumors with low T cell infiltration into immunotherapy responsive tumors. […] Statistical analysis of the data was conducted using unpaired Student t-test criteria with additional false discovery rate adjustment for multiple comparisons for gene expression analysis.

PDA T high tumor cells = test: Subcutaneous PDA T high tumor model in B6 wild-type mice; assay type: in vivo; conditions: measured until day 31
Experimental: as §2

Tumor PDAC cells = test: Tumor cell viability by Annexin V/DAPI staining; assay type: cell-based; conditions: different concentrations, 16 hours, listed as AP-3-84
Experimental: as §3

[10] = tested on: thioglycolate-induced macrophages; test: Macrophage viability by Annexin V/DAPI staining; assay type: cell-based; conditions: different concentrations, 16 hours, listed as AP-3-84
Experimental: as §3

Compound: Cn1c(=O)sn(-c2cccc(OCCCNC(=O)CC[C@@H](NC(=O)c3ccc(NCCc4cc5c(=O)[nH]c(N)nc5[nH]4)cc3)C(=O)O)c2)c1=O [AP-08-237]
- IC50 (Rb-NT (380-785)): 22 nM
- Inhibition of AP-8-239 binding Rb-NT (380-785) Top (Rb-NT (380-785)): 85.9%
- IC50 [1]: 171 nM
- Inhibition of HDAC1 binding Rb-NT (380-785) Top [1]: 72%

Compound: Cn1c(=O)sn(-c2cccc(OCCCNC(=S)Nc3ccc4c(c3)C(=O)OC43c4ccc(O)cc4Oc4cc(O)ccc43)c2)c1=O [AP-08-239]
- # of CH2CONH2 (Rb protein): 6
- Cys residues masked from reacting with the iodoacetamide (Rb protein): 2

Compound: O=c1sn(-c2cccc3ccccc23)c(=O)n1Cc1ccccc1 [Tideglusib, reference compound]
- IC50 (Rb-NT (380-785)): 126 nM
- Inhibition of AP-8-239 binding Rb-NT (380-785) Top (Rb-NT (380-785)): 86.9%
- IC50 [1]: 40 nM
- Inhibition of HDAC1 binding Rb-NT (380-785) Top [1]: 77%

Compound: Cn1c(=O)sn(-c2cccc(OCCCNC(=O)c3ccccc3)c2)c1=O [AP-08-238]
- IC50 (Rb-NT (380-785)): 54 nM
- Inhibition of AP-8-239 binding Rb-NT (380-785) Top (Rb-NT (380-785)): 90.6%
- IC50 [1]: 83 nM
- Inhibition of HDAC1 binding Rb-NT (380-785) Top [1]: 71%

Compound: COc1cccc(-n2sc(=O)n(C)c2=O)c1 [AP-03-084]
- apoptosis proteins (NOXA, BIM, cleaved-PARP, cleaved Caspase-3) (THP-1 cell line; 10 uM in FIG. 23A): increased mitochondrial protein levels of NOXA, BIM, cleaved-PARP, and cleaved Caspase-3; also recorded: induction of Cleaved-PARP, Noxa and Cleaved-caspase 3
- Bax, Bak, Bcl-2, Bcl-xl levels (THP-1 cell line): Bax and Bak levels were unchanged; also recorded: Bax Bcl-2 and Bcl-xl does not get altered
- ER-stress signals (ATF4, ATF3, peIF2a) (THP-1 cell line): induced higher levels of ER-stress signals (higher ATF4, ATF3); also recorded: Induction of ATF4, ATF3 and peIF2a
- pancreatic tumor growth (PDA T high cell line [2]): significant reduction of tumor growth; also recorded: significantly reduced the tumor growth in mice
- # of CH2CONH2 (Rb protein): 2
- Cys residues masked from reacting with the iodoacetamide (Rb protein): 6
- immune cell composition in the peritoneum ([3]; peritoneum cells on day 21, flow cytometry): re-shapes the immune cell composition in the peritoneum
- tumor-associated macrophages in tumors ([3]; tumor cells on day 12, flow cytometry, listed as AP-3-84): depleting macrophages and inducing T cell infiltration; also recorded: effectively depletes tumor-associated macrophages in tumors
- cells undergoing cell death ([4]; 5 minute exposure, 24 hours later): 70-80%
- concentration at which induction of cell death was observed ([4]; AML cells, tested at 5, 10, 15, 20 μM): ≥ 10 µM
- cell death in AML cell lines ([4]; THP-1, AML-193, Kasumi-1, annexin V+ and AnnexinV+Live-Dead+ cells): induced cell death in different AML cell lines
- cell death [5]: no cell death was induced; also recorded: does not induce cell death in ID8 cells
- tumor growth (PDA T high cell line [6]): No effect of AP-3-84 treatment was observed
- gene expression changes [7]: induction of oxidative and ER stress programs with a clear activation of p53-dependent genes and caspases; also recorded: induced strong unfolded protein and oxidative stress response with the induction of apoptosis pathway and p53 signaling
- cell division rate [8]: No effect in cell division rate
- cell death [9]: no cell death was induced; also recorded: minor effect on PMA treated THP-1 cells
- tumor growth, AP-3-84 treatment alone (PDA T low cell line; orthotopic and subcutaneous models): didn't dramatically affect the tumor growth
- tumor growth, combined with Immunotherapy (PDA T low cell line; with anti-PD1/anti-CTLA4/anti-CD40, listed as AP-3-84): decrease tumor burden in T-low-PDA model; also recorded: effectively reduced the tumor growth compared to monotherapies
- IC50 (Rb-NT (380-785)): 445 nM
- Inhibition of AP-8-239 binding Rb-NT (380-785) Top (Rb-NT (380-785)): 90.1%
- tumor growth (PDA T high tumor cells): Significant reduction of tumor growth
- IC50 [1]: 89 nM
- Inhibition of HDAC1 binding Rb-NT (380-785) Top [1]: 75%
- PDA tumor cell viability / death of other cell types (Tumor PDAC cells): not of the other cell types (neither tumor nor T cells); also recorded: didn't affect PDA tumor cell viability
- macrophage cell death [10]: can induce cell death of TAMs and thioglycolate-induced macrophages; also recorded: induced macrophage cell death in dose-dependent manner

Compound: C=CC(=O)N(C)C(=O)Nc1cccc(OC)c1 [SA-01-048]
- IC50 (Rb-NT (380-785)): 2920 nM
- Inhibition of AP-8-239 binding Rb-NT (380-785) Top (Rb-NT (380-785)): 83.8%
- IC50 [1]: 12700 nM
- Inhibition of HDAC1 binding Rb-NT (380-785) Top [1]: 69%

Compound: Cn1c(=O)sn(-c2cccc(OCCCN)c2)c1=O [AP-08-231]
- IC50 (Rb-NT (380-785)): 362 nM
- Inhibition of AP-8-239 binding Rb-NT (380-785) Top (Rb-NT (380-785)): 83.3%
- IC50 [1]: 77 nM
- Inhibition of HDAC1 binding Rb-NT (380-785) Top [1]: 72%
